We go through 3 compounds from patent US20260374773A1, “MULTI-CYCLIC IRAK AND FLT3 INHIBITING COMPOUNDS AND USES THEREOF” (CHILDREN'S HOSPITAL MEDICAL CENTER, priority 2022, published 2026).

Data set [1] has as its target IRAK1 (Homo sapiens, UniProt P51617). The data set can be described thus: RBC HotSpot kinase inhibition assay, IRAK1. The data set is classed as biochemical. To be noted: Table 17; isolated kinase, 33P-ATP, 2 h.
Source text: (§1) This assay uses the isolated kinase enzyme. This assay is very useful for determining competition of the inhibitor for ATP and/or substrates and for measuring the kinetics of enzyme inhibition. […] Unlike kinase binding assays that measure competition for ATP, the HotSpot Kinase Assay is a functional assay that measures catalytic activity; as such it measures relative functional potency regardless of the mechanism of enzyme inhibition. This assay uses the form of the various enzymes that are easiest to express, which may not necessarily be the form of the enzyme that exist in the cell. (Sometimes the carboxy terminus has been truncated to aid in expression, or, if it is a receptor kinase, the enzyme itself is isolated from the other parts of the receptor that are involved in regulating kinase activity.)
(§2) The reagent used was as follows: Base Reaction buffer; 20 mM Hepes (pH 7.5), 10 mM MgCl2, 1 mM EGTA, 0.01% Brij35, 0.02 mg/ml BSA, 0.1 mM Na3VO4, 2 mM DTT, 1% DMSO. Required cofactors were added individually to each kinase reaction.
(§3) The reaction procedure was as follows: • 1) Substrates were prepared in freshly prepared Reaction Buffer. • 2) Any required cofactors were delivered to the substrate solution above. • 3) Kinase was delivered into the substrate solution and gently mixed. • 4) Compounds were delivered in 100% DMSO into the kinase reaction mixture by Acoustic technology (Echo550; nanoliter range), followed by incubation for 20 min at room temp. • 5) ^33P-ATP was delivered into the reaction mixture to initiate the reaction. • 6) The mixture was incubated for 2 hours at room temperature. • 7) Kinase activity was detected by P81 filter-binding method.
as §1, with “Although not wishing to be limited by theory, it is believed that sometimes” for “(Sometimes”, “activity.” for “activity.)”
(§4) The reagent used was as follows: Base Reaction buffer; 20 mM Hepes (pH 7.5), 10 mM MgCl2, 1 mM EGTA, 0.01% Brij35, 0.02 mg/ml BSA, 0.1 mM Na3 VO4, 2 mM DTT, 1% DMSO.
(§5) Required cofactors were added individually to each kinase reaction.
as §3, with “33P-ATP” for “^33P-ATP”

The target in data set [2] is T1, IRAK4 (Homo sapiens, UniProt Q9NWZ3).
T1 sequence (Q9NWZ3 1-460): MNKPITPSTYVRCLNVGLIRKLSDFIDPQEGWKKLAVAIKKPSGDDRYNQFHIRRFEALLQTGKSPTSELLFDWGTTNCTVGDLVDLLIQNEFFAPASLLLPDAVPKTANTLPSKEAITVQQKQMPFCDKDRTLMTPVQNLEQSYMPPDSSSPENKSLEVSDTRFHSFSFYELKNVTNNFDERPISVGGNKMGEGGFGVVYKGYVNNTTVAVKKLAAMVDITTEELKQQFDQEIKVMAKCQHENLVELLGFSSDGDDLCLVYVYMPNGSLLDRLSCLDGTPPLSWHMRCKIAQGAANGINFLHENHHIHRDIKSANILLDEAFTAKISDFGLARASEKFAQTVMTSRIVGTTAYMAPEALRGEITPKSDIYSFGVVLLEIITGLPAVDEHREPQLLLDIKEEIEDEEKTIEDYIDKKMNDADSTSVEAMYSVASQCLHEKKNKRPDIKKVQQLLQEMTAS
As to the kind of experiment: RBC HotSpot kinase inhibition assay, IRAK4. Format: biochemical. To be noted: Table 17; isolated kinase, 33P-ATP, 2 h.
Source text: as §1, §2, §3
as §1, with “Although not wishing to be limited by theory, it is believed that sometimes” for “(Sometimes”, “activity.” for “activity.)”
as §4, §5
as §3, with “33P-ATP” for “^33P-ATP”

Data set [3] deals with T2, FLT3 (Homo sapiens, UniProt P36888).
T2 sequence (P36888 27-993): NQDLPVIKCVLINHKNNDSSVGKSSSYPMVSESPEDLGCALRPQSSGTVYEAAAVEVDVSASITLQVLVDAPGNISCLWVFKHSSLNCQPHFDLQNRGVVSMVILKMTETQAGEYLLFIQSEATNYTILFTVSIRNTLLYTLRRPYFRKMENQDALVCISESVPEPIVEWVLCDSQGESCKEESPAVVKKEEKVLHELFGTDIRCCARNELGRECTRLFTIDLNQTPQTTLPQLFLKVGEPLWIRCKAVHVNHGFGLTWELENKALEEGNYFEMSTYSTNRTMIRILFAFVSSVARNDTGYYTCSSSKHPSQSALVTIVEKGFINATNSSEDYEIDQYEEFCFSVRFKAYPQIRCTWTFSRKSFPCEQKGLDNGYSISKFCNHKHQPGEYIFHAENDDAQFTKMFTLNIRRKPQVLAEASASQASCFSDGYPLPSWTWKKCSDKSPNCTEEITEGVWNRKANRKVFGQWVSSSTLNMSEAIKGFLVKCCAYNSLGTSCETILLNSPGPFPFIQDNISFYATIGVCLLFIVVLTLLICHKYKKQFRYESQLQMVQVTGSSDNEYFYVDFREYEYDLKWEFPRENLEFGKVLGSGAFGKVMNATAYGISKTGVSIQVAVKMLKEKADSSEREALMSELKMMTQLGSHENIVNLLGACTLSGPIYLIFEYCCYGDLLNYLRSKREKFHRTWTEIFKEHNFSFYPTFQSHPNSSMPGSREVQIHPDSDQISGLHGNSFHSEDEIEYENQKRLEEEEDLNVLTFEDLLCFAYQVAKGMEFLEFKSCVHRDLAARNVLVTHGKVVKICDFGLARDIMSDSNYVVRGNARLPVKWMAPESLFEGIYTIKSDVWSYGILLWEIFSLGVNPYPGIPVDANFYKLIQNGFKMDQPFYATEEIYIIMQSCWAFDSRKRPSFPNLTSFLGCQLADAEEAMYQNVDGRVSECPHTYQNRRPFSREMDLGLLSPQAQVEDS
The data set can be described thus: RBC HotSpot kinase inhibition assay, FLT3. The data set is classed as biochemical. To be noted: Table 17; isolated kinase, 33P-ATP, 2 h.
Source text: as §1, §2, §3
as §1, with “Although not wishing to be limited by theory, it is believed that sometimes” for “(Sometimes”, “activity.” for “activity.)”
as §4, §5
as §3, with “33P-ATP” for “^33P-ATP”

The test system of data set [4] is MOLM14 D835Y cells. The data set can be described thus: MOLM14 D835Y cell viability (Cell Titer Glo). Format: cell-based. To be noted: Homo sapiens, MOLM-14, Table 22, 48 h. As for the experimental part: (§6) Both cell lines have activated FLT3 receptors, each of which carry additional resistance mutations in the kinase domain (D835Y and F691L, respectively).
(§7) MOLM14 D835Y and MOLM14 F691L cells were grown in RPMI-1640 media supplemented with 20% fetal bovine serum (FBS). For viability/cytotoxicity assessments, cells were seeded into 1536-well white polystyrene tissue culture-treated Greiner plates using a Multidrop Combi dispenser (ThermoFisher), in final volume 5 μL of growth media per well, at a density of 1000 cells per well. After cell addition, 23 nL of test compound were transferred into individual wells (22 doses tested for each test compound, with a 1:2 dilution series starting at 10 μM) via a 1536 pin-tool. Bortezomib (final concentration 2.3 μM) was used as a positive control for cell cytotoxicity. Plates were incubated for 48 hours at standard incubator conditions covered by a stainless steel gasketed lid to prevent evaporation. 48 hours post compound addition, 3 μL of Cell Titer Glo (Promega) were added to each well and plates were incubated at room temperature for 15 minutes with the stainless-steel lid in place. Luminescence readings were taken using a Viewlux imager (PerkinElmer) with a 2 second exposure time per plate.
This cell line has activated FLT3 receptors, which carries an additional resistance mutation in the kinase domain at D835Y.
as §7, with “D835Y” for “D835Y and MOLM14 F691L”, “mL” for “μL”, “mM)” for “μM)”
Background: Cellular ATP, detected with luciferase, serves as a proxy for viable cell number.

Data set [5] deals with MOLM14 F691L cells. The data set can be described thus: MOLM14 F691L cell viability (Cell Titer Glo). Format: cell-based. The settings on record: Homo sapiens, MOLM-14, Table 22, 48 h. As for the experimental part: as §6, §7
Data set [6] relates to MOLM14 (D835Y) cells. The data set can be described thus: Combination drug screening with venetoclax, Cell Titer Glo, MOLM14 (D835Y). Format: cell-based. Set-up: key: relative excess HSA score; more negative = greater synergy. To be noted: compound 0-0.5 μM, venetoclax 0-20 μM, 10 × 10, 48 h, negative = synergy. As to the method:
(§8) Combination drug therapy has the potential to produce enhanced effects with lower side effects not obtained using either agent alone, or beyond the additive effect of the different concentrations of the two different agents. To determine whether enhanced effects are observed in different drug combinations, combination drug screening was performed as previously described (Mathews-Griner, L. A. et al., Proc. Nat. Acad. Sci., 2014, 111:2349-2354; Lin, G. L. et al., Sci. Trans. Med., 2019, 11: eaaw0064). Briefly, 10 nL of compounds were acoustically dispensed into 1536-well white polystyrene tissue culture-treated plates with an Echo 550 acoustic liquid handler (Labcyte). Cells were then added to compound-containing plates at a density of 500-cells/well in 5 μL of medium. A 10-point custom concentration range was used for all listed drugs in a 10×10 matrix. Plates were incubated for 48 hours at standard incubator conditions covered by a stainless steel gasketed lid to prevent evaporation. 48 hours post compound addition, 3 μL of Cell Titer Glo (Promega) were added to each well and plates were incubated at room temperature for 15 minutes with the stainless-steel lid in place. Luminescence readings were taken using a Viewlux imager (PerkinElmer) with a 2 second exposure time per plate.
(§9) Each compound was studied in combination with venetoclax at two concentration ranges of compound and venetoclax, respectively (for a total of 4 combination dose-response curves). The dose combinations that yielded the optimal synergy score, measured as excess HSA, which are reported in Tables 23 and 24 for the FLT3 mutant cell line MOLM14 (D835Y) and the FLT3 WT cell line THP1, respectively.
Table 23 provides combination outcomes for representative compounds with venetoclax in the Cell Titer Glo assay in MOLM14 (D835Y) cells (a FLT3 mutant cell line) at 48 hours. The table provides relative excess HSA values for compounds of the disclosure used in combination with venetoclax compared to gilteritinib hemifumarate used in combination with venetoclax. A negative excess HSA score illustrates that the drug combination is better than either drug alone, wherein greater synergy is observed at larger negative values of the excess HSA score.
(§10) Excess HSA is a measure of synergy vs. additivity or antagonism, wherein a negative excess HSA value is indicative of synergy. More information on excess HSA scores can be found in Vlot, Anna H. C. et al., Drug Discovery Today, 2019, 24(12):2286-2298. […] However, different methodologies may yield different numerical scores, and different definitions of what constitutes a deviation from mere additivity vs true drug synergy. The large negative excess HSA values provided in Tables 23 and 24 illustrate that multiple members of this structural class synergize with venetoclax. The degree to which combination therapy has to potential to produce enhanced effects with lower side effects not obtained using either agent alone, or beyond the additive effect of the different concentrations of the two different agents depends on the nature of the drugs used in the combination, and the specific doses/concentrations at which they are ultimately used in the therapeutic regimen. A negative excess HSA score illustrates that the drug combination is better than either drug alone (at the concentrations being studied). […] However, the utility in certain drug combinations vs. others should not be distinguished based on cutoffs between excess HSA scores, because the score itself is only a relative indicator that is completely dependent on experimental design and is not an absolute number. Furthermore, the concept of what constitutes clinically meaningful drug synergy is something that is still being debated, not only between pharmacologists and physicians, but amongst pharmacologists themselves. […]

Data set [7] relates to THP1 cells. The data set can be described thus: Combination drug screening with venetoclax, Cell Titer Glo, THP1. Format: cell-based. The settings on record: compound 0-20 μM, venetoclax 0-2 μM, 10 × 10, 48 h, negative = synergy. As for the experimental part:
as §8, §9
Table 24 provides combination outcomes for representative compounds with venetoclax in the Cell Titer Glo assay in THP1 (FLT3 wild type) cells at 48 hours. The table provides relative excess HSA values for compounds of the disclosure used in combination with venetoclax compared to gilteritinib hemifumarate used in combination with venetoclax. A negative excess HSA score illustrates that the drug combination is better than either drug alone, wherein greater synergy is observed at larger negative values of the excess HSA score.
as §10

Data set [8] deals with Menin-KMT2A (MLL). To be noted: pre-clinical studies; cited from earlier work.

Sequence of IRAK1 (P51617 whole entry, the tested form may be a part): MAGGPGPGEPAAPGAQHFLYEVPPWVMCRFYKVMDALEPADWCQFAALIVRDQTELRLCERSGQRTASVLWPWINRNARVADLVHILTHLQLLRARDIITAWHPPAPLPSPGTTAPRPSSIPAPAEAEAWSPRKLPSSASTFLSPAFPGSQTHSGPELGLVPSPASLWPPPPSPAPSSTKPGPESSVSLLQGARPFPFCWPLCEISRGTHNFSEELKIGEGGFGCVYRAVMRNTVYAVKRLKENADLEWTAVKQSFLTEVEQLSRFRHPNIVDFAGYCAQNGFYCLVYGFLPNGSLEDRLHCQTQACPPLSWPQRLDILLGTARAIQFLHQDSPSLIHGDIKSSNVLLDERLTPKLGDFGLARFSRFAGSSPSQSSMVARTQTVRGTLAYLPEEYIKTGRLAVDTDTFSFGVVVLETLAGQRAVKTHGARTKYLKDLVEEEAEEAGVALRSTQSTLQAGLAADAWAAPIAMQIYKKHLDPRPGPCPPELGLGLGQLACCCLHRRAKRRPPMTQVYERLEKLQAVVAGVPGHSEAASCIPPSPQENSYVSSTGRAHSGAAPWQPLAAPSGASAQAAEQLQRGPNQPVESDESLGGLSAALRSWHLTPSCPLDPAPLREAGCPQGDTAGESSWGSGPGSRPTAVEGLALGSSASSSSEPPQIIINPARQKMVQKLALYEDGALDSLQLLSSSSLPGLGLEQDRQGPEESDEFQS

Turning to `COc1cn2ncc(-c3ccnc(N[C@@H]4CCCNC4)n3)c2nc1C(C)(C)O` [Compound 2a, (R)-2-(6-methoxy-3-(2-(piperidin-3-ylamino)pyrimidin-4-yl)pyrazolo[1,5-a]pyrimidin-5-yl)propan-2-ol], the half-maximal inhibitory concentration (IC50) in data set [1] turned out to be 365 nM; in data set [2], 127 nM; in data set [3], 8 nM; in data set [4], 159 nM; in data set [5] it was 1790 nM.
With `CCc1nc(C(N)=O)c(Nc2ccc(N3CCC(N4CCN(C)CC4)CC3)c(OC)c2)nc1NC1CCOCC1` [Gilteritinib hemifumarate, Gilteritinib, reference compound], the “Excess HSA” value is reported as −1556 in data set [6] and −1626 in data set [7].
Regarding `CNc1nc(NC2CCN(Cc3ccc4c(cc(C#N)n4C[C@H](C)N4CCN(S(C)(=O)=O)CC4)c3C)CC2)c2cc(CC(F)(F)F)sc2n1` [KO-539], in data set [8], the pharmacokinetic properties result was “excellent pharmacokinetic properties” and the toxicity profile result is recorded as “low toxicity profiles”.

The IC50 is the concentration that gives 50% inhibition.
